Source: patent publication US12606571B2, “Macrocyclic compounds and uses thereof” (TURNING POINT THERAPEUTICS, INC., priority 2017, dated 2026)
Like-named read-outs stand apart in the source and are kept apart here.

Columns and labels:
HCC827 cells [1] = test: Scratch wound healing assay, HCC827; assay type: cell-based, human; conditions: 36-48 hours treatment
Procedure: (§1) MKN-45 or HCC827 cells were seeded in 24-well plate. After 12-24 hours, confluent cell monolayers were gently scraped with a sterile pipette tip to form a scratch. The plates were washed with fresh medium, and the cells were incubated with medium alone or medium containing various concentration of compounds. After 36-48 hours, the plates were examined and recorded by an EVOS FL microscopy (Life Technology) to monitor rescaling of the cell monolayer.

MKN-45 cells = test: Scratch wound healing assay, MKN-45; assay type: cell-based; conditions: 36-48 hours treatment
Procedure: as §1

[2] = tested on: MET phosphorylation and downstream signaling in MKN-45 cells; test: Immunoblotting for cellular kinase phosphorylation, MKN-45; assay type: cell-based; conditions: 16 hour incubation
Procedure: (§2) Half a million cells per well were seeded in 24 well plate for 24 hrs, and then treated with compounds for 4 hours. Cells were collected after treatment and lysed in RIPA buffer (50 mM Tris, pH 7.4, 150 mM NaCl, 1% NP-40, 0.5% Deoxycholate, 0.1% SDS) supplemented with 10 mM EDTA, 1× Halt protease and phosphatase inhibitors (Thermo Scientific). […] Membranes were incubated with chemiluminescent substrate for 5 min at room temperature (SuperSignal West Femto, Thermo Scientific). The chemiluminescent images were acquired with a C-DiGit Imaging System (LI-COR Biosciences). The relative density of the chemiluminescent bands were quantified via Image Studio Digits from LICOR. The half inhibitory concentration (IC50) value is calculated using non-linear regression analysis through GraphPad Prism software (GraphPad, Inc., San Diego, CA).

HCC827 cells [3] = test: Apoptosis of HCC827 cells; assay type: cell-based, human; conditions: 48 hour incubation, combination with AZD9291
MC38 syngeneic tumors [4] = test: Combination efficacy study with PD-1 antibody in MC38 syngeneic model; assay type: in vivo, mouse
Procedure: (§3) C57BL/6J female mice (6 weeks) were purchased from the Jackson Laboratory, and maintained in accordance with the guidelines for the care and use of laboratory animals. Half million MC38 cancer cells in 100 μL serum-free medium were implanted subcutaneously in the right flank region of the mouse. Tumor size and body weight were measured on designated days. Tumor size was measured with an electronic caliper and tumor volume was calculated as the product of length*width^2*0.5. […] Vehicle control, Compound 5, PD-1 antibody or Compound 5 plus PD-1 antibody were administered orally (BID) at determined doses.
Anti-tumor effects of Compound 5 combined with PD-1 antibody on MC38 syngeneic tumors was analyzed by tumor volume. The average tumor volume of vehicle control group (G1) on day 20 was 1938.58±729.41, Compound 5 treated group (G2) was 1220.03±521.39 mm3, PD-1 antibody treatment group was 821.24±767.16, and Compound 5 plus PD-1 antibody treatment was 515.63±350.47.

LU2503 tumors = test: LU2503 patient derived xenograft (PDX) NSCLC model
Procedure: Primary human tumor xenograft model LU2503 tumors were grown in stock mice. Tumor fragments (2-3 mm in diameter) were harvested from stock mice and inoculated into the right front back of each mouse for tumor development. 16 mice were enrolled in the study. All animals were randomly allocated to the 2 different study groups. Tumor size and body weight were measured on designated days. Tumor size was measured using a caliper and tumor volume was calculated as the product of length*width^2*0.5.

MC38 syngeneic tumors [5] = test: Subcutaneous MC38 syngeneic mouse tumor model, tumor volume and body weight; assay type: in vivo
Procedure: as §3
Anti-tumor effects of Compound 5 on MC38 syngeneic tumors was analyzed by tumor volume. The average tumor volume of vehicle control group (G1) on day 7 was 696.3±299.7, while Compound 5 treated group (G2) was 473.5±170.4 mm^3. On day 11, the average tumor volume of G1 and G2 were 1142.6±290.0 and 610.4±151.8mm^3, respectively.

[6] = tested on: MET phosphorylation and downstream signaling in SNU-5 cells; test: Immunoblotting for cellular kinase phosphorylation, SNU-5; assay type: cell-based, human; conditions: 4 hour incubation
Procedure: as §2

[7] = tested on: tumor associated immune cells in MC38 tumors; test: MC38 syngeneic model PD biomarker study (FACS of tumor associated immune cells)
Procedure: MC38 tumors were collected on day 7 and day 11. The collected tumors were dissociated using MiltenyiGentleMax. FACS analysis of tumors were performed for the tumor associated immune cells including tumor associated macrophages (TAM) and TAM subtypes (M1 and M2), myeloid derived suppression cells (MDSC), cytotoxic T lymphocytes (CTL, i.e. CD8+ T cells), CD4+ T cells, and regulatory T cells (Treg).
FACS analysis of tumors were performed on day 7 and day 11 for the tumor associated immune cells including tumor associated macrophages (TAM) and TAM subtypes (MI and M2), myeloid derived suppression cells (MDSC), cytotoxic T lymphocytes (CTL, i.e. CD8+ T cells), CD4+ T cells, and regulatory T cells (Treg).

M-NFS-60 cells = test: M-NFS-60 cell proliferation at varied CSF-1; assay type: cell-based; conditions: Mus musculus
Procedure: Two thousand cells per well were seeded in 384 well white plate for 24 hrs, and then treated with compounds for 72 hours (37° C., 5% CO2). Cell proliferation was measured using CellTiter-Glo luciferase-based ATP detection assay (Promega) following the manufacturer's protocol. IC50 determinations were performed using GraphPad Prism software (GraphPad, Inc., San Diego, CA).
The anti-cell proliferation activities against MET and CSF1R driven cell lines were conducted with MKN-45, SNU-5, Ba/F3 TEL-CSF1R cells, and M-NFS-60 respectively.

CCN1Cc2c(ccc(F)c2C#N)O[C@@H](C)CNC(=O)c2c(N)nn3ccc1nc23 [Compound 5, (7S)-3-amino-14-ethyl-11-fluoro-7-methyl-4-oxo-4,5,6,7,13,14-hexahydro-1,15-ethenopyrazolo[4,3-f][1,4,8,10]benzoxatriazacyclotridecine-12-carbonitrile]
cell migration of HCC827 cells, wound healing (HCC827 cells [1]): inhibited | cell migration of MKN-45 cells, wound healing (MKN-45 cells): inhibited | phosphorylation of MET and downstream effectors (gel) [2]: inhibited | apoptosis of HCC827 cells (HCC827 cells [3]): synergized with AZD9291 | average tumor volume (MC38 syngeneic tumors [4]; day 20): 1220.03±521.39 mm3 | body weight and overt abnormality (MC38 syngeneic tumors [4]; mouse, in vivo): No body weight loss and overt abnormality | tumor regression (LU2503 tumors; 15 mg/kg, BID for 13 days): 85% | body weight (LU2503 tumors; 21 days of BID treatment at 15 mg/kg): No body weight loss | body weight and overt abnormality (MC38 syngeneic tumors [5]; 15 mg/kg BID for 7 or 11 days): No body weight loss and overt abnormality | average tumor volume (MC38 syngeneic tumors [5]; day 7, 15 mg/kg BID): 473.5±170.4 mm^3 | average tumor volume (MC38 syngeneic tumors [5]; day 11, 15 mg/kg BID): 610.4±151.8 mm^3 | MET phosphorylation (gel) [6]: inhibited | TAM cells vs control ([7]; day 7): trend for a reduction | populations of TAM, M1, M2, MDSC, CTL, CD4+ T cells, Treg in CD45+ tumor leukocytes vs control ([7]; day 7): no statistically significant changes | CD4+ T cells or Treg cells vs control ([7]; day 11): no statistically significant change | CTL cells in the total tumor leukocyte population vs control ([7]; day 11): trend of increase | CTL in the CD3+ lymphocyte population vs control ([7]; day 11): statistically significant increase | M1 TAM in the total tumor leukocyte population vs control ([7]; day 11): increase | M2 TAM in the total tumor leukocyte population vs control ([7]; day 11): decrease | MDSC populations vs control ([7]; day 11): concurrent increase | TAM in the total tumor leukocyte population vs control ([7]; day 11): statistically significant decrease | IC50 (M-NFS-60 cells; read-out: M-NFS-60 IC50, CSF-1 0 ng/mL): 0.3 nM | IC50 (M-NFS-60 cells; read-out: M-NFS-60 IC50, CSF-1 0.3 ng/mL): 3 nM | IC50 (M-NFS-60 cells; read-out: M-NFS-60 IC50, CSF-1 1 ng/mL): 11.6 nM | IC50 (M-NFS-60 cells; read-out: M-NFS-60 IC50, CSF-1 3 ng/mL): 78.2 nM | IC50 (M-NFS-60 cells; read-out: M-NFS-60 IC50, CSF-1 10 ng/mL): 84.1 nM | IC50 (M-NFS-60 cells; read-out: M-NFS-60 IC50, CSF-1 30 ng/mL): 181 nM | IC50 (M-NFS-60 cells; read-out: M-NFS-60 IC50, CSF-1 100 ng/mL): 174 nM
